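Following 48 hours of exposure in 96-well plates, responses at five concentrations were used to interpolate endpoints linearly. GI50 marks 50% less growth.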 Activity calls are given as the source filed them. No stated cut-off is given here; in the data, active = GI50 up to about 1.1 µM and inactive = higher.
Assays:
Assay in all cases: DTP human tumour cell line panel, 48 h
OVCAR-4 = tested on: OVCAR-4
SR = tested on: SR
TK-10 = tested on: TK-10
K562 = tested on: K562
U-251 = tested on: U-251
HL-60 = tested on: HL-60
COLO 205 = tested on: COLO 205
CCRF-CEM = tested on: CCRF-CEM
SF-539 = tested on: SF-539
RPMI-8226 = tested on: RPMI-8226
MDA-MB-435 = tested on: MDA-MB-435
NCI/ADR-RES = tested on: NCI/ADR-RES
SNB-75 = tested on: SNB-75
OVCAR-5 = tested on: OVCAR-5
SK-OV-3 = tested on: SK-OV-3
HCT-116 = tested on: HCT-116
T47D = tested on: T47D
HOP-62 = tested on: HOP-62
SW-620 = tested on: SW-620
OVCAR-8 = tested on: OVCAR-8
ACHN = tested on: ACHN
OVCAR-3 = tested on: OVCAR-3
PC-3 = tested on: PC-3
NCI-H522 = tested on: NCI-H522
KM12 = tested on: KM12
LOX IMVI = tested on: LOX IMVI
BT-549 = tested on: BT-549
Hs-578T = tested on: Hs-578T
SK-MEL-5 = tested on: SK-MEL-5
UO-31 = tested on: UO-31
HOP-92 = tested on: HOP-92
NCI-H23 = tested on: NCI-H23
UACC-257 = tested on: UACC-257
SK-MEL-2 = tested on: SK-MEL-2
SNB-19 = tested on: SNB-19
NCI-H226 = tested on: NCI-H226
A549 = tested on: A549
HCT-15 = tested on: HCT-15
MCF7 = tested on: MCF7
SF-268 = tested on: SF-268
HT-29 = tested on: HT-29
DU-145 = tested on: DU-145
A498 = tested on: A498
SF-295 = tested on: SF-295
Malme-3M = tested on: Malme-3M
EKVX = tested on: EKVX
M14 = tested on: M14
RXF 393 = tested on: RXF 393
MOLT-4 = tested on: MOLT-4
SK-MEL-28 = tested on: SK-MEL-28
786-0 = tested on: 786-0
MDA-N = tested on: MDA-N
SN12C = tested on: SN12C
CAKI-1 = tested on: CAKI-1
UACC-62 = tested on: UACC-62
MDA-MB-231 = tested on: MDA-MB-231
IGROV-1 = tested on: IGROV-1
NCI-H460 = tested on: NCI-H460
HCC 2998 = tested on: HCC 2998

O=[N+]([O-])c1ccc2c3c1[C@H]1O[C@H]1c1cccc(c1-3)[C@@H]1O[C@H]21
GI50 (OVCAR-4): 2.12 µM (inactive)
GI50 (SR): 2.72 µM (inactive)
GI50 (TK-10): 2.96 µM (inactive)
GI50 (K562): 0.526 µM (active)
GI50 (U-251): 1.8 µM (inactive)
GI50 (HL-60): 3.15 µM (inactive)
GI50 (COLO 205): 2.05 µM (inactive)
GI50 (CCRF-CEM): 1.44 µM (inactive)
GI50 (SF-539): 2.3 µM (inactive)
GI50 (RPMI-8226): 1.23 µM (inactive)
GI50 (MDA-MB-435): 1.85 µM (inactive)
GI50 (NCI/ADR-RES): 2.41 µM (inactive)
GI50 (SNB-75): 1.97 µM (inactive)
GI50 (OVCAR-5): 2.37 µM (inactive)
GI50 (SK-OV-3): 4.22 µM (inactive)
GI50 (HCT-116): 1.81 µM (inactive)
GI50 (T47D): 2.08 µM (inactive)
GI50 (HOP-62): 2.9 µM (inactive)
GI50 (SW-620): 0.951 µM (active)
GI50 (OVCAR-8): 0.91 µM (active)
GI50 (ACHN): 2.22 µM (inactive)
GI50 (OVCAR-3): 2.63 µM (inactive)
GI50 (PC-3): 2.3 µM (inactive)
GI50 (NCI-H522): 1.67 µM (inactive)
GI50 (KM12): 2.35 µM (inactive)
GI50 (LOX IMVI): 0.305 µM (active)
GI50 (BT-549): 1.99 µM (inactive)
GI50 (Hs-578T): 3.15 µM (inactive)
GI50 (SK-MEL-5): 3.02 µM (inactive)
GI50 (UO-31): 2 µM (inactive)
GI50 (HOP-92): 2.18 µM (inactive)
GI50 (NCI-H23): 1.81 µM (inactive)
GI50 (UACC-257): 1.82 µM (inactive)
GI50 (SK-MEL-2): 2.52 µM (inactive)
GI50 (SNB-19): 3.54 µM (inactive)
GI50 (NCI-H226): 45.9 µM (inactive)
GI50 (A549): 3.2 µM (inactive)
GI50 (HCT-15): 1.71 µM
GI50 (MCF7): 2.11 µM (inactive)
GI50 (SF-268): 1.98 µM (inactive)
GI50 (HT-29): 2.01 µM (inactive)
GI50 (DU-145): 2.33 µM (inactive)
GI50 (A498): 2.31 µM (inactive)
GI50 (SF-295): 3.5 µM (inactive)
GI50 (Malme-3M): 2.4 µM (inactive)
GI50 (EKVX): 2.03 µM (inactive)
GI50 (M14): 1.71 µM (inactive)
GI50 (RXF 393): 1.78 µM (inactive)
GI50 (MOLT-4): 3.01 µM (inactive)
GI50 (SK-MEL-28): 2.28 µM (inactive)
GI50 (786-0): 1.96 µM (inactive)
GI50 (MDA-N): 2.17 µM (inactive)
GI50 (SN12C): 2.12 µM (inactive)
GI50 (CAKI-1): 1.99 µM (inactive)
GI50 (UACC-62): 1.86 µM (inactive)
GI50 (MDA-MB-231): 2.01 µM (inactive)

N#Cc1c(Cl)c2ccccc2n2c1nc1ccccc12
GI50 (OVCAR-4): 27.4 µM (inactive)
GI50 (SR): 50 µM (inactive)
GI50 (TK-10): 19.4 µM (inactive)
GI50 (K562): 18.9 µM (inactive)
GI50 (IGROV-1): 13.9 µM (inactive)
GI50 (U-251): 92.7 µM (inactive)
GI50 (HL-60): 5.33 µM (inactive)
GI50 (COLO 205): 23.1 µM (inactive)
GI50 (CCRF-CEM): 11.2 µM (inactive)
GI50 (SF-539): 19.4 µM (inactive)
GI50 (RPMI-8226): 31.3 µM (inactive)
GI50 (MDA-MB-435): 56.1 µM (inactive)
GI50 (NCI/ADR-RES): 23.3 µM (inactive)
GI50 (SNB-75): 60.4 µM (inactive)
GI50 (OVCAR-5): > 100 µM (inactive)
GI50 (SK-OV-3): 87.9 µM (inactive)
GI50 (HCT-116): 18.3 µM (inactive)
GI50 (T47D): 27.2 µM (inactive)
GI50 (HOP-62): 38 µM (inactive)
GI50 (SW-620): 29.1 µM (inactive)
GI50 (OVCAR-8): 21.9 µM (inactive)
GI50 (ACHN): 18 µM (inactive)
GI50 (OVCAR-3): 36.5 µM (inactive)
GI50 (PC-3): 31 µM (inactive)
GI50 (KM12): 34.1 µM (inactive)
GI50 (LOX IMVI): 10.8 µM (inactive)
GI50 (BT-549): 71 µM (inactive)
GI50 (Hs-578T): 17.7 µM (inactive)
GI50 (UO-31): 16.1 µM (inactive)
GI50 (HOP-92): 19.7 µM (inactive)
GI50 (NCI-H23): 24.2 µM (inactive)
GI50 (UACC-257): 42.4 µM (inactive)
GI50 (NCI-H460): 69.7 µM (inactive)
GI50 (SK-MEL-2): 37.3 µM (inactive)
GI50 (SNB-19): 74.6 µM (inactive)
GI50 (NCI-H226): 21.6 µM (inactive)
GI50 (A549): > 100 µM (inactive)
GI50 (HCT-15): 15.2 µM
GI50 (MCF7): 39.9 µM (inactive)
GI50 (SF-268): 27.2 µM (inactive)
GI50 (HT-29): 20.3 µM (inactive)
GI50 (DU-145): 27.7 µM (inactive)
GI50 (A498): > 100 µM (inactive)
GI50 (SF-295): 59.7 µM (inactive)
GI50 (EKVX): 19.9 µM (inactive)
GI50 (M14): 19.6 µM (inactive)
GI50 (RXF 393): 22.6 µM (inactive)
GI50 (MOLT-4): 30.3 µM (inactive)
GI50 (SK-MEL-28): 79.3 µM (inactive)
GI50 (786-0): 19.7 µM (inactive)
GI50 (HCC 2998): 19.6 µM (inactive)
GI50 (MDA-N): 35 µM (inactive)
GI50 (SN12C): 25.4 µM (inactive)
GI50 (CAKI-1): 21.9 µM (inactive)
GI50 (UACC-62): 43.5 µM (inactive)
GI50 (MDA-MB-231): 23.8 µM (inactive)

Nc1nc(=S)n(-c2ccc(Cl)cc2)c2nc3ccccc3cc12
GI50 (OVCAR-4): 46.7 µM (inactive)
GI50 (SR): 16.1 µM (inactive)
GI50 (TK-10): 28.7 µM (inactive)
GI50 (K562): 66.7 µM (inactive)
GI50 (IGROV-1): 1.69 µM (inactive)
GI50 (U-251): 48.9 µM (inactive)
GI50 (HL-60): > 100 µM (inactive)
GI50 (COLO 205): 36 µM (inactive)
GI50 (CCRF-CEM): 42.4 µM (inactive)
GI50 (RPMI-8226): 59.6 µM (inactive)
GI50 (MDA-MB-435): 80.4 µM (inactive)
GI50 (NCI/ADR-RES): > 100 µM (inactive)
GI50 (SNB-75): 43.5 µM (inactive)
GI50 (OVCAR-5): 83.2 µM (inactive)
GI50 (SK-OV-3): 22.7 µM (inactive)
GI50 (HCT-116): 40.7 µM (inactive)
GI50 (T47D): 18.7 µM (inactive)
GI50 (HOP-62): 55.8 µM (inactive)
GI50 (SW-620): 95.5 µM (inactive)
GI50 (OVCAR-8): 50.1 µM (inactive)
GI50 (ACHN): 18.8 µM (inactive)
GI50 (OVCAR-3): 45 µM (inactive)
GI50 (PC-3): 46.8 µM (inactive)
GI50 (NCI-H522): 45.3 µM (inactive)
GI50 (KM12): 29.3 µM (inactive)
GI50 (LOX IMVI): 44.1 µM (inactive)
GI50 (BT-549): 19.1 µM (inactive)
GI50 (Hs-578T): 83.2 µM (inactive)
GI50 (SK-MEL-5): 51.8 µM (inactive)
GI50 (UO-31): 33.6 µM (inactive)
GI50 (HOP-92): 9.82 µM (inactive)
GI50 (NCI-H23): 56.9 µM (inactive)
GI50 (UACC-257): > 100 µM (inactive)
GI50 (NCI-H460): 46.2 µM (inactive)
GI50 (SK-MEL-2): 49.7 µM (inactive)
GI50 (SNB-19): > 100 µM (inactive)
GI50 (NCI-H226): 50.6 µM (inactive)
GI50 (A549): 97.7 µM (inactive)
GI50 (HCT-15): 39.9 µM
GI50 (MCF7): 15.4 µM (inactive)
GI50 (SF-268): 36.2 µM (inactive)
GI50 (HT-29): 79.6 µM (inactive)
GI50 (DU-145): 43.6 µM (inactive)
GI50 (A498): > 100 µM (inactive)
GI50 (SF-295): 64.6 µM (inactive)
GI50 (Malme-3M): 32.5 µM (inactive)
GI50 (EKVX): 15.3 µM (inactive)
GI50 (M14): 84.9 µM (inactive)
GI50 (RXF 393): 57.9 µM (inactive)
GI50 (SK-MEL-28): > 100 µM (inactive)
GI50 (786-0): 53.3 µM (inactive)
GI50 (HCC 2998): 64.6 µM (inactive)
GI50 (MDA-N): 90.8 µM (inactive)
GI50 (SN12C): > 100 µM (inactive)
GI50 (CAKI-1): 30.1 µM (inactive)
GI50 (UACC-62): 40.9 µM (inactive)
GI50 (MDA-MB-231): 60.5 µM (inactive)
